From PubChem BioAssay (NCI) come the findings set out here.

Some test systems named below: HOP-92 NSCLC; SF-268 CNS; SNB-19 CNS; PC-3 prostate; SK-MEL-5 melanoma; TK-10 renal; MALME-3M melanoma; NCI-H522 lung; SR leukemia; SK-MEL-2 melanoma.
Common to all, as to experiment: growth of human tumour cells (NCI), 48 h

SMILES strings stand for the structures.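 Assay format: 96-well plates, 48-hour exposure. GI50 marks 50% less growth. TGI: total growth inhibition.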

On to `COc1ccc(/C=c2\sc3n(c2=O)C2C(NN=3)N(C)C(=O)N2C)cc1` (stereo not drawn), for which the GI50 in the experiment with HOP-92 NSCLC is 0.513 µM; with SF-268 CNS, over 100 µM; in the experiment on SNB-19 CNS, 1.3 µM; in the experiment on PC-3 prostate, 0.444 µM; in the experiment on SK-MEL-5 melanoma, 0.66 µM; in the experiment with TK-10 renal, over 100 µM. Also, the GI50 was 1.19 µM in the experiment with MALME-3M melanoma, 0.877 µM in the experiment on NCI-H522 lung, 0.316 µM with SR leukemia and 2.31 µM in the experiment with SK-MEL-2 melanoma. Besides, the TGI in the experiment on HOP-92 NSCLC, in the experiment on SF-268 CNS, in the experiment with SNB-19 CNS, in the experiment on PC-3 prostate, with SK-MEL-5 melanoma and in the experiment with TK-10 renal was over 100 µM throughout. For the same molecule, the TGI with MALME-3M melanoma, with NCI-H522 lung, in the experiment with SR leukemia and in the experiment on SK-MEL-2 melanoma was over 100 µM each time.

With `COC1=C(C)C(=O)c2c(c(CCCl)c3n2CCC3O)C1=O` (stereo not drawn), the GI50 in the experiment with HOP-92 NSCLC was 6.21 µM; in the experiment with SF-268 CNS, 0.533 µM; with SNB-19 CNS, 0.407 µM; in the experiment on PC-3 prostate, 1.42 µM; with SK-MEL-5 melanoma, 0.148 µM; with TK-10 renal, 0.296 µM. The GI50 in the experiment with MALME-3M melanoma was 0.23 µM; with NCI-H522 lung it was 0.224 µM; in the experiment on SR leukemia, 0.409 µM; in the experiment with SK-MEL-2 melanoma, 0.376 µM. Moreover, the TGI in the experiment with HOP-92 NSCLC is 24.7 µM; with SF-268 CNS it was 20 µM; in the experiment on SNB-19 CNS, 13.6 µM; with PC-3 prostate, 10.8 µM; in the experiment on SK-MEL-5 melanoma it was 0.291 µM; in the experiment with TK-10 renal, 0.763 µM. For the same molecule, the TGI in the experiment with MALME-3M melanoma was 0.584 µM; in the experiment with NCI-H522 lung it was 1.17 µM; in the experiment with SR leukemia, over 26.8 µM; with SK-MEL-2 melanoma, 1.57 µM.

For `COc1ccc(S(=O)(=O)NC2=NCCN2C(=S)SN2CCn3c2nsc3=S)cc1`, the GI50 in the experiment with HOP-92 NSCLC is 16.9 µM; in the experiment on SF-268 CNS, 18 µM; with SNB-19 CNS, 32.9 µM; with PC-3 prostate, 17.5 µM; with SK-MEL-5 melanoma it was 17.8 µM; in the experiment on TK-10 renal, 15.9 µM. Also, the GI50 was 9.1 µM in the experiment with MALME-3M melanoma, 9.62 µM with NCI-H522 lung, 17 µM in the experiment with SR leukemia and 17.6 µM in the experiment with SK-MEL-2 melanoma. Further, the TGI in the experiment with HOP-92 NSCLC is 35.4 µM; with SF-268 CNS, 37.8 µM; in the experiment on SNB-19 CNS, over 100 µM; with PC-3 prostate, 40.1 µM; in the experiment on SK-MEL-5 melanoma, 31.7 µM; with TK-10 renal, 30.2 µM. Moreover, the TGI in the experiment with MALME-3M melanoma was 24.9 µM; in the experiment with NCI-H522 lung, 35 µM; with SR leukemia, over 100 µM; in the experiment on SK-MEL-2 melanoma, 51.3 µM.

For the molecule `CC(=O)OC1=CC2=CC[C@H]3[C@@H]4CCC(=O)[C@@]4(C)CC(=O)[C@]3(S)[C@@]2(C)CC1`, the TGI in the experiment with HOP-92 NSCLC is 62.8 µM; in the experiment on SF-268 CNS, 89.6 µM; in the experiment on SNB-19 CNS it was over 100 µM; with PC-3 prostate, over 100 µM; with SK-MEL-5 melanoma, over 100 µM; with TK-10 renal, 85.1 µM. For the same molecule, the TGI in the experiment with MALME-3M melanoma was 57.2 µM; with NCI-H522 lung, 63 µM; with SR leukemia, 74.1 µM; in the experiment on SK-MEL-2 melanoma it was over 100 µM.

As to `CC(C)(C)c1ccc(OC(=O)Nc2ccc(O)c(C(=O)O)c2)cc1`, the TGI in the experiment with HOP-92 NSCLC, with SF-268 CNS, with SNB-19 CNS, in the experiment on PC-3 prostate, in the experiment with SK-MEL-5 melanoma and with TK-10 renal was over 100 µM each time. Further, the TGI in the experiment with MALME-3M melanoma, with NCI-H522 lung, with SR leukemia and in the experiment with SK-MEL-2 melanoma was over 100 µM each time.

Turning to `O=C(O)c1cn(C2CC2)c2cc(N3CCN(C(=O)Nc4nc(-c5ccccc5)cs4)CC3)c(F)cc2c1=O`, the GI50 in the experiment on HOP-92 NSCLC is 1.13 µM; in the experiment with SF-268 CNS, 0.474 µM; in the experiment on SNB-19 CNS it was 1.12 µM; in the experiment on PC-3 prostate, 1.88 µM; in the experiment on SK-MEL-5 melanoma, 0.824 µM; in the experiment on TK-10 renal, 3.93 µM. For the same molecule, the GI50 was 1.53 µM with MALME-3M melanoma, 1.39 µM in the experiment with NCI-H522 lung, 0.35 µM in the experiment with SR leukemia and 1.85 µM in the experiment on SK-MEL-2 melanoma. For the same molecule, the TGI with HOP-92 NSCLC is 5.99 µM; in the experiment with SF-268 CNS, over 100 µM; with SNB-19 CNS, over 100 µM; with PC-3 prostate it was over 100 µM; in the experiment on SK-MEL-5 melanoma it was 2.87 µM; with TK-10 renal it was 35.1 µM. For the same molecule, the TGI in the experiment on MALME-3M melanoma worked out at 6.52 µM; in the experiment with NCI-H522 lung, 6.26 µM; with SR leukemia, 73.8 µM; with SK-MEL-2 melanoma, 6.42 µM.

`Cc1cc2cc3ccc(N(C)C)cc3nc2cc1N`: the GI50 in the experiment with HOP-92 NSCLC is 1.14 µM; in the experiment with SF-268 CNS, 0.611 µM; in the experiment with SNB-19 CNS it was 0.582 µM; with PC-3 prostate, 0.992 µM; in the experiment with SK-MEL-5 melanoma, 0.767 µM; in the experiment on TK-10 renal, 1.41 µM. In addition, the GI50 is 0.929 µM in the experiment with MALME-3M melanoma, 0.612 µM with NCI-H522 lung, 0.536 µM with SR leukemia and 0.392 µM with SK-MEL-2 melanoma. Further, the TGI in the experiment with HOP-92 NSCLC came out at 4.69 µM; in the experiment with SF-268 CNS it was 2.32 µM; with SNB-19 CNS it was 4.42 µM; with PC-3 prostate, 4.91 µM; in the experiment with SK-MEL-5 melanoma it was 2.25 µM; with TK-10 renal it was 9.44 µM. For the same molecule, the TGI in the experiment with MALME-3M melanoma stood at 3.42 µM; in the experiment with NCI-H522 lung, 2.4 µM; in the experiment with SR leukemia it was 5.68 µM; in the experiment with SK-MEL-2 melanoma, 1.6 µM.

As to `COc1cccc(-c2ccc3c(c2)C2CCN(Cc4ccccc4)C3C2)c1` (stereo not drawn), the GI50 was 3.72 µM in the experiment on HOP-92 NSCLC; 12.3 µM in the experiment on SF-268 CNS; 12.9 µM with SNB-19 CNS; 6.99 µM with PC-3 prostate; 3.51 µM in the experiment with SK-MEL-5 melanoma; 13.4 µM in the experiment on MALME-3M melanoma. Moreover, the GI50 is 4.54 µM in the experiment on NCI-H522 lung, 3.95 µM with SR leukemia and 5.04 µM with SK-MEL-2 melanoma. In addition, the TGI was found to be 20.2 µM in the experiment with HOP-92 NSCLC; 34.4 µM in the experiment on SF-268 CNS; 30.5 µM with SNB-19 CNS; 65.4 µM in the experiment with PC-3 prostate; 14.7 µM in the experiment with SK-MEL-5 melanoma; 30.4 µM in the experiment on MALME-3M melanoma. Also, the TGI amounted to 20.4 µM in the experiment on NCI-H522 lung, 13.8 µM in the experiment with SR leukemia and 18 µM in the experiment on SK-MEL-2 melanoma.
